Results on 2 compounds are retold here after ChEMBL document CHEMBL1158996, “Antiviral phloroglucinols from New Zealand Kunzea species” (1992).

For one experiment, the system named is Human alphaherpesvirus 1. Briefly: Antiviral activity against Herpes simplex virus type 1 assessed as inhibition of virus-induced cytopathic effect at 5 ug/disk. Type of experiment: functional. Conditions: read-out: IZ. On the technique in general: Cytopathic effects are the visible damage that an infection or toxin causes in cultured cells.
A further experiment relates to Poliovirus 1. Kind of experiment: Antiviral activity against Poliovirus type 1 assessed as inhibition of virus-induced cytopathic effect at 5 ug/disk. Type of experiment: functional. The note with it: Enterovirus C; read-out: IZ.

`COc1cc(O)c(C(=O)C(C)C)c(O)c1`: the zone of inhibition at 5 µg/disc in the experiment on Human alphaherpesvirus 1 and in the experiment with Poliovirus 1 was 17 mm throughout.

Consider `COc1cc(O)cc(O)c1C(=O)C(C)C` [ROBUSTAOL B], for which the zone of inhibition at 5 µg/disc in the experiment with Human alphaherpesvirus 1 and with Poliovirus 1 was 17 mm in each case.
